Experiments:
pancreatic lipase (PL) = tested on: T1, pancreatic lipase (PL); assay: Fluorescence emission spectroscopy (tryptophan fluorescence quenching of PL); assay type: binding, porcine; conditions: for kq (bimolecular quenching constant): calculated from KSV with τ0 = 1.59 ns; for KSV (Stern-Volmer quenching constant): excitation 295 nm, 40 µM PL; for KA (binding constant) / n (number of binding sites): double-logarithmic equation
T1 construct: purchased Sigma-Aldrich Co. (St. Louis, MO, USA); host or cells: porcine pancreas (tissue preparation)
Procedure: The fluorescence spectra of PL in the presence of the sample were measured on a SpectraMax® i3 Multi-Mode Microplate Reader (Molecular Devices) as described previously with slight modification. In brief, aliquots of the sample solution at various concentrations (0−100 µM) were added into 40 µM of PL solution. The mixture was incubated for 30 min at 25 °C and 37 °C, and the fluorescence emission spectra were measured in the range of 315−400 nm upon excitation at 295 nm. The excitation and emission slit widths were set at 9 and 15 nm, respectively. The fluorescence data were analyzed by fitting to the Stern-Volmer equation for analysis of fluorescence quenching[23]:4 F0/F=1+KSV[Q]=1+kqτ0[Q] where F0 and F is the fluorescence intensity in the absence and presence of quencher, respectively, kq is the bimolecular quenching constant, τ0 is the lifetime of fluorescence in the absence of quencher, KSV is the Stern-Volmer quenching constant, and [Q] is the concentration of quencher. KSV was obtained from the slope of a plot of F0/F versus [Q] by linear regression curve fitting, and kq was calculated by KSV, where τ0 is equal to 1.59 ns[31]. The binding constant (KA) and number of binding sites (n) were obtained according to a double-logarithmic equation[32]:5 logF0−F/F=logKA+nlog[Q]

[1] = molecular target: T2, Lipase from porcine pancreas type II (pancreatic lipase) (Sus scrofa, UniProt P00591); assay: Pancreatic lipase inhibition assay (4-MUO substrate, fluorescence); assay type: biochemical; conditions: for Inhibition mode (type of inhibition): Lineweaver-Burk plots at 50 μM and 100 μM of compound; for IC50: from RRA of PL at various concentrations, nonlinear regression
T2 construct: purchased Sigma-Aldrich Co. (St. Louis, MO, USA); host or cells: porcine pancreas (tissue preparation)
T2 sequence (P00591 1-450): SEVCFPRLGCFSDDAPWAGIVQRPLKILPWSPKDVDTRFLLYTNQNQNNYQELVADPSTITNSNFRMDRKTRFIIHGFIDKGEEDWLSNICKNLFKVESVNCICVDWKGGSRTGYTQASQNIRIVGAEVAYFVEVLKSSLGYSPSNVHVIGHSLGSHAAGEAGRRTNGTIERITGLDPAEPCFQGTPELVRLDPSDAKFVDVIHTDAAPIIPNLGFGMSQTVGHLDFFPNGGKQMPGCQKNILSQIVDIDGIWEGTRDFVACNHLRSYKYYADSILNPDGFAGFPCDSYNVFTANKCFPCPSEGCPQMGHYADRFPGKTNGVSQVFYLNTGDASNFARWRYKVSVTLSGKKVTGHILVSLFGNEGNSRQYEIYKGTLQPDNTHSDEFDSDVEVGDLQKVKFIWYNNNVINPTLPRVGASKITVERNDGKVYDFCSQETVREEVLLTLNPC
Procedure: The PL assay using 4-MUO as a substrate was conducted as described previously with slight modification[28],[29]. Lipase from porcine pancreas type II (i.e., pancreatic lipase) was dissolved in 50 mM Tris-HCl buffer (pH 8.0) to give 10 mg/mL, and centrifuged at 5,000 g for 10 min to remove insoluble material before the enzyme assay. Then, 50 µL of 0.5 mM 4-MUO solution dissolved in the above buffer and 100 µL of the sample solution dissolved in methanol (i.e., the inhibitor solution) were mixed in 96-well microplate to form the reaction system. The enzymatic hydrolysis was initiated by adding 50 µL of the PL solution to the reaction system (final 250 units/mL) at 37 °C. […] The inhibitory activities against PL were calculated for comparison with each other, as follows:1 Inhibition(%)=A0−AS/A0×100 where A0 is the relative fluorescence unit after the reaction for 30 min in the absence of sample (i.e., only methanol) and AS is the fluorescence unit in the presence of sample.
To determine the IC50, the RRA of PL in the presence of the sample at various concentrations was evaluated. The reaction of PL was measured by the same procedure described above, and the RRA was calculated from the following equation:2 Relativeresidualactivity(%)=vS/v0×100 where ν0 is the initial velocity of the reaction in the absence of sample (i.e., only methanol) and νS is the initial velocity in the presence of sample. […] The type of inhibition was elucidated by evaluating the changes of kinetic parameters from Lineweaver-Burk plot as follows:3 1/v=Km/Vmax1/[S]+1/Vmax where [S] is the concentration of substrate, v is the initial velocity of the reaction, Vmax is the maximum initial velocity when substrate approaches infinite concentration, and Km is the dissociation constant of the enzyme-substrate complex (i.e., the Michaelis constant).

IC50 [1] [µM] | Compound | kq (bimolecular quenching constant) (pancreatic lipase (PL); 25 °C) | KSV (Stern-Volmer quenching constant) (pancreatic lipase (PL); 25 °C) | kq (bimolecular quenching constant) (pancreatic lipase (PL); 37 °C) | KA (binding constant) (pancreatic lipase (PL); 37 °C) | n (number of binding sites) (pancreatic lipase (PL); 37 °C) | KSV (Stern-Volmer quenching constant) (pancreatic lipase (PL); 37 °C) | KA (binding constant) (pancreatic lipase (PL)) [M⁻¹] | Inhibition mode (type of inhibition) [1]
142 | O=c1c(O[C@@H]2O[C@@H](CO)[C@H](O)[C@H]2O)c(-c2ccc(O)c(O)c2)oc2cc(O)cc(O)c12 [Avicularin, quercetin-3-O-α-L-arabinofuranoside] | 3.52 10^12 M^−1s^−1 | 0.56 10^4 M^−1 | 3.71 10^12 M^−1s^−1 | 0.94 10^4 M^−1 | 1.1119 | 0.59 10^4 M^−1 | 9400 | non-competitive or mixed-type inhibition
79.4 | O=c1c(O)c(-c2ccc(O)cc2)oc2cc(O)cc(O)c12 [Kaempferol] | 7.67 10^12 M^−1s^−1 | 1.22 10^4 M^−1 | 6.48 10^12 M^−1s^−1 | 2.07 10^4 M^−1 | 1.1103 | 1.03 10^4 M^−1 | 20700 | competitive inhibition
 | O=c1c(O)c(-c2ccc(O)c(O)c2)oc2cc(O)cc(O)c12 [Quercetin] | 6.29 10^12 M^−1s^−1 | 1.00 10^4 M^−1 | 5.91 10^12 M^−1s^−1 | 3.57 10^4 M^−1 | 1.1471 | 0.94 10^4 M^−1 | 35700 | competitive inhibition
 | myricetin-3-O-α-L-rhamnopyranoside [Myricitrin] | 7.48 10^12 M^−1s^−1 | 1.19 10^4 M^−1 | 7.74 10^12 M^−1s^−1 | 1.45 10^4 M^−1 | 1.0228 | 1.23 10^4 M^−1 | 14500 | non-competitive or mixed-type inhibition

Compound | IC50 [1] [µM] | kq (bimolecular quenching constant) (pancreatic lipase (PL); 25 °C) | KSV (Stern-Volmer quenching constant) (pancreatic lipase (PL); 25 °C) | kq (bimolecular quenching constant) (pancreatic lipase (PL); 37 °C) | KA (binding constant) (pancreatic lipase (PL); 37 °C) | n (number of binding sites) (pancreatic lipase (PL); 37 °C) | KSV (Stern-Volmer quenching constant) (pancreatic lipase (PL); 37 °C) | KA (binding constant) (pancreatic lipase (PL)) [M⁻¹] | Inhibition mode (type of inhibition) [1]
C[C@@H]1O[C@@H](Oc2c(-c3ccc(O)c(O)c3)oc3cc(O)cc(O)c3c2=O)[C@H](O)[C@H](O)[C@H]1O [Quercitrin, quercetin-3-O-α-L-rhamnopyranoside] | 101 | 8.05 10^12 M^−1s^−1 | 1.28 10^4 M^−1 | 8.30 10^12 M^−1s^−1 | 1.00 10^4 M^−1 | 0.9760 | 1.32 10^4 M^−1 | 10000 | non-competitive or mixed-type inhibition

From paper PMC6889161, “Inhibitory characteristics of flavonol-3-O-glycosides from Polygonum aviculare L. (common knotgrass) against porcine pancreatic lipase” (Scientific Reports, 2019)
